ChEMBL document CHEMBL1152667, “Synthesis and radiopharmacological investigation of 3-[4'-[(18)F]fluorobenzylidene]indolin-2-one as possible tyrosine kinase inhibitor” (Bioorg Med Chem, 2009)

Experiments:
Kidney [1] = test: Biodistribution in Wistar rat kidney at 1.7 MBq, iv administered as single dose measured after 10 mins post-injection by gamma counting; type: ADME, organism-based; conditions: in vivo
Thymus [2] = test: Biodistribution in Wistar rat thymus assessed as standard uptake value at 1.7 MBq, iv administered as single dose measured after 10 mins post-injection by gamma counting; type: ADME, organism-based; conditions: in vivo
Adrenal gland [3] = test: Biodistribution in Wistar rat adrenal gland at 1.7 MBq, iv administered as single dose measured after 1 min post-injection by gamma counting; type: ADME, organism-based; conditions: in vivo
[4] = Biodistribution in Wistar rat thyroid gland at 1.7 MBq, iv administered as single dose measured after 5 mins post-injection by gamma counting; type: ADME, organism-based; conditions: in vivo
Femur [5] = test: Biodistribution in Wistar rat femur assessed as standard uptake value at 1.7 MBq, iv administered as single dose measured after 10 mins post-injection by gamma counting; type: ADME, organism-based; conditions: in vivo
Liver [6] = test: Biodistribution in Wistar rat liver at 1.7 MBq, iv administered as single dose measured after 60 mins post-injection by gamma counting; type: ADME, organism-based; conditions: in vivo, 1 h
Brain [7] = test: Biodistribution in Wistar rat brain assessed as standard uptake value at 1.7 MBq, iv administered as single dose measured after 60 mins post-injection by gamma counting; type: ADME, organism-based; conditions: in vivo, 1 h
Pancreas [8] = test: Biodistribution in Wistar rat pancreas at 1.7 MBq, iv administered as single dose measured after 10 mins post-injection by gamma counting; type: ADME, organism-based; conditions: in vivo
Thymus [9] = test: Biodistribution in Wistar rat thymus at 1.7 MBq, iv administered as single dose measured after 5 mins post-injection by gamma counting; type: ADME, organism-based; conditions: in vivo
Intestine = test: Biodistribution in Wistar rat intestine at 1.7 MBq, iv administered as single dose measured after 1 min post-injection by gamma counting; type: ADME, organism-based; conditions: in vivo
Liver [10] = test: Biodistribution in Wistar rat liver at 1.7 MBq, iv administered as single dose measured after 30 mins post-injection by gamma counting; type: ADME, organism-based; conditions: in vivo, 0.5 h
Pancreas [11] = test: Biodistribution in Wistar rat pancreas assessed as standard uptake value at 1.7 MBq, iv administered as single dose measured after 5 mins post-injection by gamma counting; type: ADME, organism-based; conditions: in vivo
Spleen [12] = test: Biodistribution in Wistar rat spleen at 1.7 MBq, iv administered as single dose measured after 10 mins post-injection by gamma counting; type: ADME, organism-based; conditions: in vivo
Blood [13] = test: Biodistribution in Wistar rat blood assessed as standard uptake value at 1.7 MBq, iv administered as single dose measured after 60 mins post-injection by gamma counting; type: ADME, organism-based; conditions: in vivo, 1 h
[14] = Biodistribution in Wistar rat thyroid gland assessed as standard uptake value at 1.7 MBq, iv administered as single dose measured after 60 mins post-injection by gamma counting; type: ADME, organism-based; conditions: in vivo, 1 h
Femur [15] = test: Biodistribution in Wistar rat femur at 1.7 MBq, iv administered as single dose measured after 1 min post-injection by gamma counting; type: ADME, organism-based; conditions: in vivo
Pancreas [16] = test: Biodistribution in Wistar rat pancreas at 1.7 MBq, iv administered as single dose measured after 5 mins post-injection by gamma counting; type: ADME, organism-based; conditions: in vivo
[17] = Biodistribution in Wistar rat brown adipose tissue assessed as standard uptake value at 1.7 MBq, iv administered as single dose measured after 5 mins post-injection by gamma counting; type: ADME, organism-based; conditions: in vivo
[18] = Biodistribution in Wistar rat stomach at 1.7 MBq, iv administered as single dose measured after 1 min post-injection by gamma counting; type: ADME, organism-based; conditions: in vivo
Kidney [19] = test: Biodistribution in Wistar rat kidney assessed as standard uptake value at 1.7 MBq, iv administered as single dose measured after 30 mins post-injection by gamma counting; type: ADME, organism-based; conditions: in vivo, 0.5 h
[20] = Biodistribution in Wistar rat stomach at 1.7 MBq, iv administered as single dose measured after 60 mins post-injection by gamma counting; type: ADME, organism-based; conditions: in vivo, 1 h
[21] = Biodistribution in Wistar rat urine at 1.7 MBq, iv administered as single dose measured after 1 min post-injection by gamma counting; type: ADME, organism-based; conditions: in vivo
Kidney [22] = test: Biodistribution in Wistar rat kidney assessed as standard uptake value at 1.7 MBq, iv administered as single dose measured after 60 mins post-injection by gamma counting; type: ADME, organism-based; conditions: in vivo, 1 h
Brain [23] = test: Biodistribution in Wistar rat brain assessed as standard uptake value at 1.7 MBq, iv administered as single dose measured after 30 mins post-injection by gamma counting; type: ADME, organism-based; conditions: in vivo, 0.5 h
[24] = Ratio of drug level in adrenal gland to blood in Wistar rat at 1.7 MBq, iv administered as single dose measured after 5 mins post-injection; type: ADME, organism-based
[25] = Biodistribution in Wistar rat thyroid gland assessed as standard uptake value at 1.7 MBq, iv administered as single dose measured after 30 mins post-injection by gamma counting; type: ADME, organism-based; conditions: in vivo, 0.5 h
[26] = Biodistribution in Wistar rat urine at 1.7 MBq, iv administered as single dose measured after 5 mins post-injection by gamma counting; type: ADME, organism-based; conditions: in vivo
Lung = test: Biodistribution in Wistar rat lung assessed as standard uptake value at 1.7 MBq, iv administered as single dose measured after 5 mins post-injection by gamma counting; type: ADME, organism-based; conditions: in vivo
Brain [27] = test: Biodistribution in Wistar rat brain assessed as standard uptake value at 1.7 MBq, iv administered as single dose measured after 5 mins post-injection by gamma counting; type: ADME, organism-based; conditions: in vivo
[28] = Ratio of drug level in liver to blood in Wistar rat at 1.7 MBq, iv administered as single dose measured after 5 mins post-injection; type: ADME, organism-based
[29] = Biodistribution in Wistar rat hair/skin assessed as standard uptake value at 1.7 MBq, iv administered as single dose measured after 1 min post-injection by gamma counting; type: ADME, organism-based; conditions: in vivo
Brain [30] = test: Biodistribution in Wistar rat brain assessed as standard uptake value at 1.7 MBq, iv administered as single dose measured after 1 min post-injection by gamma counting; type: ADME, organism-based; conditions: in vivo
Blood [31] = test: Biodistribution in Wistar rat blood assessed as standard uptake value at 1.7 MBq, iv administered as single dose measured after 10 mins post-injection by gamma counting; type: ADME, organism-based; conditions: in vivo
[32] = Ratio of drug level in brain to blood in Wistar rat at 1.7 MBq, iv administered as single dose measured after 60 mins post-injection; type: ADME, organism-based
Spleen [33] = test: Biodistribution in Wistar rat spleen assessed as standard uptake value at 1.7 MBq, iv administered as single dose measured after 5 mins post-injection by gamma counting; type: ADME, organism-based; conditions: in vivo
Liver [34] = test: Biodistribution in Wistar rat liver assessed as standard uptake value at 1.7 MBq, iv administered as single dose measured after 5 mins post-injection by gamma counting; type: ADME, organism-based; conditions: in vivo
[35] = Biodistribution in Wistar rat thyroid gland at 1.7 MBq, iv administered as single dose measured after 60 mins post-injection by gamma counting; type: ADME, organism-based; conditions: in vivo, 1 h
Adrenal gland [36] = test: Biodistribution in Wistar rat adrenal gland at 1.7 MBq, iv administered as single dose measured after 10 mins post-injection by gamma counting; type: ADME, organism-based; conditions: in vivo
Testes = test: Biodistribution in Wistar rat testes at 1.7 MBq, iv administered as single dose measured after 5 mins post-injection by gamma counting; type: ADME, organism-based, Testis; conditions: in vivo
Heart = test: Biodistribution in Wistar rat heart assessed as standard uptake value at 1.7 MBq, iv administered as single dose measured after 5 mins post-injection by gamma counting; type: ADME, organism-based; conditions: in vivo
Muscle tissue = test: Biodistribution in Wistar rat muscle assessed as standard uptake value at 1.7 MBq, iv administered as single dose measured after 60 mins post-injection by gamma counting; type: ADME, organism-based; conditions: in vivo, 1 h
[37] = Biodistribution in Wistar rat thyroid gland assessed as standard uptake value at 1.7 MBq, iv administered as single dose measured after 5 mins post-injection by gamma counting; type: ADME, organism-based; conditions: in vivo

Compound: O=C1Nc2ccccc2/C1=C/c1ccc([18F])cc1
- Drug uptake (Kidney [1]): 2.28 %ID
- SUV (Thymus [2]): 0.53%
- Drug uptake (Adrenal gland [3]): 0.15 %ID
- Drug uptake [4]: 0.08 %ID
- SUV (Femur [5]): 0.51%
- Drug uptake (Liver [6]): 5.98 %ID
- SUV (Brain [7]): 0.18%
- Drug uptake (Pancreas [8]): 0.28 %ID
- Drug uptake (Thymus [9]): 0.34 %ID
- Drug uptake (Intestine): 8.84 %ID
- Drug uptake (Liver [10]): 8.95 %ID
- SUV (Pancreas [11]): 1.66%
- Drug uptake (Spleen [12]): 0.14 %ID
- SUV (Blood [13]): 0.15%
- SUV [14]: 0.16%
- Drug uptake (Femur [15]): 0.44 %ID
- Drug uptake (Pancreas [16]): 0.38 %ID
- SUV [17]: 2.29%
- Drug uptake [18]: 0.71 %ID
- SUV (Kidney [19]): 1.69%
- Drug uptake [20]: 0.6 %ID
- Drug uptake [21]: 3.97 %ID
- SUV (Kidney [22]): 0.99%
- SUV (Brain [23]): 0.41%
- Kp at 5 min [24]: 10.2
- SUV [25]: 0.4%
- Drug uptake [26]: 2.39 %ID
- SUV (Lung): 1.3%
- SUV (Brain [27]): 1.67%
- Kp at 5 min [28]: 6.7
- SUV [29]: 0.67%
- SUV (Brain [30]): 2.84%
- SUV (Blood [31]): 0.47%
- Kp at 1 h [32]: 3.2
- SUV (Spleen [33]): 0.79%
- SUV (Liver [34]): 3.74%
- Drug uptake [35]: 0.01 %ID
- Drug uptake (Adrenal gland [36]): 0.1 %ID
- Drug uptake (Testes): 0.38 %ID
- SUV (Heart): 1.33%
- SUV (Muscle tissue): 0.19%
- SUV [37]: 0.99%
